Measured values taken from PubChem BioAssay AID732 (Emory University Molecular Libraries Screening Center, 2007).
“And” between values parts separate entries of the source, which are not always exact repeats. Equal values may be shown once. The source made the active and inactive calls. No rule for the calls is given here.

System: in vivo angiogenesis, blood vessel count
Experiment: angiogenesis inhibition in living animals, in vivo study, HTS (AID 732);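 also: zebrafish embryos dosed at one day post fertilization; 0% = reference inhibitor and 100% = plate mean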
Details: active compounds read low;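 tested at 30 µM in the well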

| Structure (SMILES) | vessel count % control |
| --- | --- |
| CC(C)(C)c1ccc(S(=O)(=O)/C=C/C#N)cc1 | 0% (inactive) |
| C[C@H](CS)C(=O)N1CCC[C@H]1C(=O)O | 100% (inactive) |
| NC(=O)C(=O)O | 125% (inactive) |
| O=c1onc2n1-c1cc(Br)ccc1OC2 | 95.9% (inactive) |
| CCCC[C@@]1(C2CCCC2)Cc2cc(OCC(=O)O)c(Cl)c(Cl)c2C1=O | 121% (inactive) |
| O=c1[nH]c2ccccc2c2ccccc12 | 103% (inactive) |
| O=C(O)/C(=C/c1c(C(=O)O)[nH]c2cc(Cl)cc(Cl)c12)c1ccccc1 | 108% (inactive) |
| CNCC(O)c1ccc(O)cc1 (stereo not given) | 131% (inactive) |
| NCCS(=O)(=O)O | 96.7% (inactive) |
| Cc1cc(C)c(NC(=O)C[C@H](CC(=O)O)c2cccc3ccccc23)c(C(=O)N2CCC3(CCCC3)CC2)c1 | 108% (inactive) |
| Oc1ccc2c3c1O[C@H]1c4[nH]c5c(c4C[C@@]4(O)[C@@H](C2)N(CC2CC2)CC[C@]314)C[C@@]1(O)[C@H]2Cc3ccc(O)c4c3[C@@]1(CCN2CC1CC1)[C@H]5O4 | 81.2% (inactive) |
| O=c1oc(Cl)c(Cl)c2ccccc12 | 104% (inactive) |
| CN1C2CCC1CC(OC(c1ccccc1)c1ccccc1N)C2 (stereo not given) | 91.2% (inactive) |
| CC(=O)Oc1cc(C(C)C)c(OCCN(C)C)cc1C | 109% (inactive) |
| O=c1c(-c2ccc(O)cc2)coc2cc(O)ccc12 | 105% (inactive) |
| Cc1c(CC(C)(C)C(=O)O)n(Cc2ccc(Cl)cc2)c2ccc(F)cc12 | 127% (inactive) |
| N#C/C(=C\c1c[nH]c2ccccc12)C(=O)c1ccc(O)c(O)c1 | 102% (inactive) |
| CCCC(C)(COC(N)=O)COC(=O)NC(C)C (stereo not given) | 103% (inactive) |
| Oc1[nH]c2ccccc2c1C1=Nc2ccc(Br)cc2/C1=N\OCCN1CCCC1 | 91.2% (inactive) and 74% (inactive) |
| NCC(CC(=O)O)c1ccc(Cl)cc1 (stereo not given) | 100% (inactive) |
| CCN1CCc2nc(N)oc2CC1 | 96.4% (inactive) |
| C[C@@H](NCCc1ccc(O)cc1)[C@@H](O)c1ccc(O)cc1 | 92.9% (inactive) |
| CCCCC[C@H](CC(=O)NO)C(=O)N[C@H](C(=O)N1CCC[C@H]1CO)C(C)C | 103% (inactive) |
| N=C(N)SCCc1cccc(CCSC(=N)N)c1 | 106% (inactive) |
| CC1CC2C3CCC4=CC(=O)C=C[C@]4(C)[C@@]3(F)[C@@H](O)C[C@]2(C)[C@@]1(O)C(=O)CO (stereo not given in full) | 129% (inactive) |

| Structure (SMILES) | vessel count % control |
| --- | --- |
| N[C@@H](Cn1cc(I)c(=O)[nH]c1=O)C(=O)O | 107% (inactive) |
| CCCCC#Cc1nc(N)c2ncn([C@@H]3O[C@H](C(=O)NCC)[C@@H](O)[C@H]3O)c2n1 | 110% (inactive) |
| CCCNC(C)C(=O)Nc1ccccc1C (stereo not given) | 108% (inactive) |
| Cn1cc(C2=C(c3ccc(Cl)cc3Cl)C(=O)NC2=O)c2ccccc21 | 0% (inactive) |
| CCCCN1CCC(COC(=O)c2cc(Cl)c(N)c3c2OCCO3)CC1 | 105% (inactive) |
| CCN1C[C@]2(C)CC[C@H](O)[C@@]34C5C[C@@H]6[C@@H](OC)C[C@@](O)(C5[C@H]6O)[C@@H](CC23)C14 (stereo not given in full) | 76.7% (inactive) |
| CC(C)NC[C@H](O)c1ccc(O)c(O)c1 | 98.1% (inactive) and 72.7% (inactive) |
| NC(CP(=O)(O)O)C(=O)O (stereo not given) | 103% (inactive) |
| CCCCCCC(C)(C)c1ccc([C@@H]2C[C@H](O)CC[C@H]2CCCO)c(O)c1 | 100% (inactive) |
| O=C1CC[C@@]2(O)C3Cc4ccc(O)c5c4C2(CCN3CC2CC2)[C@H]1O5 (stereo not given in full) | 73.7% (inactive) |
| CC[N+](CC)(CC)CC(=O)Nc1c(C)cccc1C | 85.1% (inactive) |
| NC12CC3CC(CC(C3)C1)C2 | 110% (inactive) |
| CC(=O)SCC[N+](C)(C)C | 99% (inactive) |
| CC(N)C(=O)OC(C)(C)Cc1ccc(Cl)cc1 (stereo not given) | 112% (inactive) |
| NC(=S)NCCCC(N)C(=O)O (stereo not given) | 119% (inactive) |
| OCC1NC[C@@H](O)C(O)[C@@H]1O (stereo not given in full) | 89.4% (inactive) |
| O=C(O)C1CCCN(CCC=C(c2ccccc2)c2ccccc2)C1 (stereo not given) | 88.5% (inactive) |
| O=C1C(c2c(O)[nH]c3ccc(S(=O)(=O)O)cc23)=Nc2ccccc21 | 101% (inactive) |
| NC(=O)CN1CC(O)CC1=O (stereo not given) | 90.1% (inactive) |
| C[N+]1(C)CCOC(O)(c2ccc(-c3ccc(C4(O)C[N+](C)(C)CCO4)cc3)cc2)C1 (stereo not given) | 103% (inactive) |
| C[N+]1(C)CCN(c2ccccc2)CC1 | 89.3% (inactive) |
| CS(=O)(=O)Nc1ccc([N+](=O)[O-])cc1Oc1ccccc1 | 80.2% (inactive) |
| Cc1sc2ccccc2c1CC1=NCCN1 | 92.5% (inactive) |
| COC(=O)[C@@H]1[C@H]2C[C@H]3c4[nH]c5ccccc5c4CCN3C[C@@H]2CC[C@@H]1O | 95.4% (inactive) |
| Oc1cc2c(cc1O)[C@H]1c3ccccc3CN[C@@H]1CC2 | 83.3% (inactive) |

| Structure (SMILES) | vessel count % control |
| --- | --- |
| Nc1ccn([C@@H]2O[C@H](CO)[C@@H](O)[C@@H]2O)c(=O)n1 | 104% (inactive) |
| CN(C)C(=O)C(CCN1CCC(O)(c2ccc(Cl)cc2)CC1)(c1ccccc1)c1ccccc1 | 126% (inactive) |
| CCCCC1C(=O)N(c2ccccc2)N(c2ccccc2)C1=O | 93.9% (inactive) |
| COc1cccc2c1[C@@H]1CN(CCCCn3c(=O)[nH]c4c(sc5ncc(-c6ccccc6)nc54)c3=O)C[C@@H]1CO2 | 87.9% (inactive) |
| O=C(O)c1cccnc1C(=O)O | 88.1% (inactive) |
| NCCS | 106% (inactive) |
| C[N+](C)(C)CC(=O)O | 94% (inactive) |
| O=c1c(O)c(-c2ccc(O)cc2O)oc2cc(O)cc(O)c12 | 108% (inactive) |
| COc1ccccc1N1CCN(CCCCNS(=O)(=O)c2cccc3c(N(C)C)cccc23)CC1 | 67.5% (inactive) |
| Oc1ccc2c3c1O[C@H]1c4oc5ccccc5c4C[C@@]4(O)C(C2)N(CC2CC2)CCC314 (stereo not given in full) | 93.1% (inactive) |
| C=CCN1CCC23c4c5ccc(O)c4O[C@H]2C(=O)CC[C@@]3(O)C1C5 (stereo not given in full) | 88.4% (inactive) |
| CCCN(CCC)[C@@H]1CCc2cccc(O)c2C1 | 94.1% (inactive) |
| CC(C)NC[C@H](O)COc1cccc2ccccc12 | 94.9% (inactive) |
| CN1CCC2(CCN3CCc4c(oc5ccccc45)C3C2)N(C)C1=O (stereo not given) | 87.3% (inactive) |
| CCCCCCCCCCC/C=C\C(C)(C)/C=C\CCCC(=O)O | 79.5% (inactive) |
| CC#C[C@]1(O)CC[C@H]2[C@@H]3CCC4=CC(=O)CCC4=C3[C@@H](c3ccc(N(C)C)cc3)C[C@@]21C | 106% (inactive) |
| CCN(CC)C(C)C(=O)N1c2ccccc2Sc2ccccc21 (stereo not given) | 94.9% (inactive) |
| CCOC(=O)c1ncn2c1CN(C)C(=O)c1cc(F)ccc1-2 | 98.9% (inactive) |
| O=P1(N(CCCl)CCCl)NCCCO1 (stereo not given) | 105% (inactive) |
| Cc1scc2c1N(C(=O)CN1CCN(C)CC1)c1ccccc1NC2=O | 93.3% (inactive) |
| Nc1nc2c(ncn2COCCO)c(=O)[nH]1 | 110% (inactive) |
| C[Se]C[C@H](N)C(=O)O | 103% (inactive) |
| Cc1[nH]c(=O)c(C#N)cc1-c1ccncc1 | 84.9% (inactive) |
| CCCN1CC[C@@H]2c3cc(O)ccc3CC[C@@H]21 | 88.5% (inactive) and 103% (inactive) |
| CN(C)CCCC1(c2ccc(F)cc2)OCc2cc(C#N)ccc21 (stereo not given) | 99.8% (inactive) |

| Structure (SMILES) | vessel count % control |
| --- | --- |
| Cn1cnc2c1c(=O)[nH]c(=O)n2C | 118% (inactive) |
| COc1cc(CC(=O)O)ccc1O | 116% (inactive) |
| CCNC(=O)[C@H]1O[C@@H](n2cnc3c(N)nc(NCCc4ccc(CCC(=O)O)cc4)nc32)C(O)[C@H]1O (stereo not given in full) | 93.7% (inactive) |
| COCc1nc2c([nH]1)c(=O)n(C)c(=O)n2CC(C)C | 93% (inactive) |
| N[C@H](CCCCCP(=O)(O)O)C(=O)O | 84.2% (inactive) |
| N[C@@H]1CONC1=O | 90.5% (inactive) |
| CCCCCCCCCCCCCCCC(=O)NCC(COP(=O)([O-])OCC[N+](C)(C)C)OCC (stereo not given) | 115% (inactive) |
| CCCCCCCCCCCCCCCCOCC(COCC(F)(F)F)OP(=O)(O)OCO (stereo not given) | 109% (inactive) |
| CC[C@@H]1Cc2cc(O)ccc2C2=C1c1ccc(O)cc1C[C@H]2CC | 99.8% (inactive) |
| CCN(CC)CC(=O)Nc1c(C)cccc1C | 73.7% (inactive) |
| O=C(O)CCCc1ccc(N(CCCl)CCCl)cc1 | 118% (inactive) |
| O=C(O)CC1CCCc2ccccc2C1O (stereo not given) | 137% (inactive) |
| NC/C=C\C(=O)O | 111% (inactive) |
| CC[C@H](NC(=O)c1c(C)c(-c2ccccc2)nc2ccccc12)c1ccccc1 | 126% (inactive) |
| Oc1cc2c(cc1O)CN(C(=S)NCCc1ccc(Cl)cc1)CCC2 | 93.3% (inactive) |
| CC1C(=O)N(C)C(=O)c2nc[nH]c21 (stereo not given) | 98.5% (inactive) |
| C=C1C(=O)O[C@@H]2[C@H]3O[C@]3(C)CCC=C(C)CC[C@@H]12 | 92.5% (inactive) |
| CN(C)CCC=C1c2ccccc2C=Cc2ccccc21 | 82.4% (inactive) |
| O=C(O)C1C2CCC(O2)C1C(=O)O (stereo not given) | 98.3% (inactive) |
| Clc1ccc(Cn2c(CN3CCCC3)nc3ccccc32)cc1 | 81.8% (inactive) |
| CN(C(=O)Cc1ccc(Cl)c(Cl)c1)C(CN1CCCC1)c1cccc(OCC(=O)O)c1 (stereo not given) | 124% (inactive) |
| CCOC(=O)C12CC1/C(=N/O)c1ccccc1O2 (stereo not given) | 104% (inactive) |
| NCCc1c[nH]c2ccc(C(N)=O)cc12 | 112% (inactive) |
| CC(C)C(=O)c1c(C(C)C)nn2ccccc12 | 94.7% (inactive) |
| CCN(CC)CCOC(=O)c1cc(Cl)c(N)cc1OC | 114% (inactive) |
